Test results reported in patent US20250051319A1 (AUGUSTINE THERAPEUTICS, priority 2021, published 2025).

How the values were obtained:
[1] = molecular target: catalytic domain 2 (CD2) of HDAC6 (Homo sapiens (Human), UniProt Q9UBN7); experiment: Cellular target engagement assay - NanoBRET; format: cell-based; conditions: NanoLuc-HDAC6(CD2) in HEK293T cells, 2 hours, read-out: IC50 (HDAC6(CD2) interaction)
[2] = molecular target: human full-length recombinant HDAC1 (Homo sapiens (Human), UniProt Q13547); experiment: HDAC1 enzymatic activity assay (alternative protocol, Ac-Gly-Ala-Lys(Ac)-AMC); format: biochemical; conditions: 4 nM enzyme, read-out: HDAC1 biochem
Chain of human full-length recombinant HDAC1 (Q13547 whole entry): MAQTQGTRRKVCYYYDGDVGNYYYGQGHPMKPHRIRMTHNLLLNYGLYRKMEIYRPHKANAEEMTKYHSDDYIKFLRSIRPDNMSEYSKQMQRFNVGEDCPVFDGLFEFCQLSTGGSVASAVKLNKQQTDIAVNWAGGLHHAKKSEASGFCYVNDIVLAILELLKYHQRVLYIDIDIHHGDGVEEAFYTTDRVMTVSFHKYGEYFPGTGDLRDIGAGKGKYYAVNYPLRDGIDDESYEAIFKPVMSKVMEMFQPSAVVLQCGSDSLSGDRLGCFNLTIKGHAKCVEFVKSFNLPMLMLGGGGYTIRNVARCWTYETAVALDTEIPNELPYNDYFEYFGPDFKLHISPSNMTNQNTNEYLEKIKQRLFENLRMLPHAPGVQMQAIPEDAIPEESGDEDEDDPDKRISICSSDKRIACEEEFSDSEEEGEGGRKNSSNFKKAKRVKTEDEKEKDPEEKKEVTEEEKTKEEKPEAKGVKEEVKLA
Experimental: (§1) Inhibition of HDAC enzymes was performed in 384-well plate format using human full-length recombinant HDAC1 and HDAC6, isolated from a baculovirus expression system in Sf9 cells (BPS Bioscience). Reaction buffer for HDAC1 contained 50 mM Tris HCl pH 8.0, 137 mM NaCl, 2.7 mM KCl, 1 mM MgCl2, 0.1 mg/mL BSA, and reaction buffer for HDAC6 contained 50 mM Tris/HCl, pH 8.0, 137 mM NaCl, 2.7 mM KCl, 250 μM EDTA, 1 mM DTT, 0.1 mg/mL BSA. Compounds (dissolved in 100% DMSO) or DMSO (vehicle) were diluted in assay buffer at 3× final assay concentration and then added to assay plates. SAHA ([…]) was used as a positive control. 3× final assay concentration of recombinant enzymes (final assay concentration is 4 nM and 5 nM for HDAC1 and HDAC6, respectively) were preincubated for 10 minutes with test compounds at room temperature. Afterwards, 3× final assay concentration of an acetylated fluorogenic peptide (Ac-Gly-Ala-Lys(Ac))-AMC, Bachem; final assay concentration is 12 µM and 40 µM for HDAC1 and HDAC6, respectively) was added to assay plate, allowing deacetylase reactions to incubate for 60 minutes at room temperature. The developer reagent containing 5 μM SAHA and 50 μM trypsin was added to stop the deacetylase reaction and generate AMNC-fluorescence. 15 minutes after addition of developer reagent, endpoint measurements were taken using CLARIOstar (BMG Labtech) plate reader (excitation/emission: 360/450). Fluorescence signals were normalized for each plate using GraphPad Prism software: reaction HDAC-substrate in presence of DMSO was set to 100% while reaction HDAC-substrate in presence of 10 μM SAHA was set to 0%.

[3] = molecular target: human full-length recombinant HDAC6 (Homo sapiens (Human), UniProt Q9UBN7); experiment: HDAC6 enzymatic activity assay (alternative protocol, Ac-Gly-Ala-Lys(Ac)-AMC); format: biochemical; conditions: 5 nM enzyme, read-out: HDAC6 biochem
Chain of human full-length recombinant HDAC6 (Q9UBN7 whole entry): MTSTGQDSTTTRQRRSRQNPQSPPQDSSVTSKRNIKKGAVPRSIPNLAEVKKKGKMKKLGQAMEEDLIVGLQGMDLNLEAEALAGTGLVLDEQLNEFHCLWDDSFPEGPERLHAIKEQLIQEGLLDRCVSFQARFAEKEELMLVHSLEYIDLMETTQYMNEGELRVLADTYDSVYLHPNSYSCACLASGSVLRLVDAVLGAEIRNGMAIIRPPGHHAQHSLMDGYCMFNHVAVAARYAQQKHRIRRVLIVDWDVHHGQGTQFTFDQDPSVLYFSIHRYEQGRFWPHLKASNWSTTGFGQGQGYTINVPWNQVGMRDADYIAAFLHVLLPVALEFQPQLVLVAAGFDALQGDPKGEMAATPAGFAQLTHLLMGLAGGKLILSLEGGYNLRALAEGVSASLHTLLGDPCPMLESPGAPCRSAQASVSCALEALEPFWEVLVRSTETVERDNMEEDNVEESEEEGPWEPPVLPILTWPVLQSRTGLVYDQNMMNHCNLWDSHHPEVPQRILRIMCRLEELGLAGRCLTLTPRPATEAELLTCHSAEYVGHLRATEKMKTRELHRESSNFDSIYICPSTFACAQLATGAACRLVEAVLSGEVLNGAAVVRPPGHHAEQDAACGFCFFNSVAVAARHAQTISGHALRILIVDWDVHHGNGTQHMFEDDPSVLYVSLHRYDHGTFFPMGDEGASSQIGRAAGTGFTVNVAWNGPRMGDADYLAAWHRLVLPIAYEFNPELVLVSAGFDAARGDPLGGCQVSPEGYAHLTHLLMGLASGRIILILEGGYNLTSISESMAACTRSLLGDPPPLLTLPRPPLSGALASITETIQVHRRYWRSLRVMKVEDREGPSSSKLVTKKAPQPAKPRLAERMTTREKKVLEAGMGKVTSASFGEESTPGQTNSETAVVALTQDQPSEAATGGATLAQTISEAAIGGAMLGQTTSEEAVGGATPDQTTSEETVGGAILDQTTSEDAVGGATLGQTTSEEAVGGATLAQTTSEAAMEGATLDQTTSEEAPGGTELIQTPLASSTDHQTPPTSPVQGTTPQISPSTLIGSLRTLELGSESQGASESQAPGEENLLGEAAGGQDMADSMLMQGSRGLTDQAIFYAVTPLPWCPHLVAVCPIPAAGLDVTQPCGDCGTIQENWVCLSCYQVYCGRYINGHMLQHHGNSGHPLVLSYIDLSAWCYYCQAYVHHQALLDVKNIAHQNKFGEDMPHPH
Experimental: as §1

Chain of catalytic domain 2 (CD2) of HDAC6 (Q9UBN7 482-800): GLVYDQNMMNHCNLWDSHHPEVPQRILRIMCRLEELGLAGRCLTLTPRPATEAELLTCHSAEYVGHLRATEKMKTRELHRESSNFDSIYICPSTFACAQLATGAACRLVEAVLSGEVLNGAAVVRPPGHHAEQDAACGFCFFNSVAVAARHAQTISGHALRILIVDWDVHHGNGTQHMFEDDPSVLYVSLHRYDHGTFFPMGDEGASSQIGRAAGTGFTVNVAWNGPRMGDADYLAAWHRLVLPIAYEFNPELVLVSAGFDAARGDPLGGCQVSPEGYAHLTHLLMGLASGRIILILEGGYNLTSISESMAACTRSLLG

IC50 [1] [nM] | IC50 [2] [nM] | IC50 [3] [nM] | Structure (SMILES)
1000 to 10000 | > 10000 | ≤ 100 | Cn1ncc2c(SCC(=O)c3ccc(CNS(=O)(=O)Cc4ccccc4)s3)ncnc21 [Compound 90, N-((5-(2-((1-methyl-1H-pyrazolo[3,4-d]pyrimidin-4-yl)thio)acetyl)thiophen-2-yl)methyl)-1-phenylmethanesulfonamide]
100 to 500 | > 10000 | ≤ 100 | CN(Cc1ccc(C(=O)CSc2ncnc3c2cnn3C)s1)S(=O)(=O)C1CC1 [Compound 91, N-methyl-N-((5-(2-((1-methyl-1H-pyrazolo[3,4-d]pyrimidin-4-yl)thio)acetyl)thiophen-2-yl)methyl)cyclopropanesulfonamide]
100 to 500 | 1000 to 10000 | ≤ 100 | CN(Cc1ccc(C(=O)CSc2ncnc3c2cnn3C)s1)S(=O)(=O)Cc1ccncc1 [Compound 92, N-methyl-N-((5-(2-((1-methyl-1H-pyrazolo[3,4-d]pyrimidin-4-yl)thio)acetyl)thiophen-2-yl)methyl)-1-(162yrrolid-4-yl)methanesulfonamide]
100 to 500 | > 10000 | ≤ 100 | Cc1nc(SCC(=O)c2ccc(CNS(=O)(=O)CC3CC3)s2)c2ccccc2n1 [Compound 93, 1-cyclopropyl-N-((5-(2-((2-methylquinazolin-4-yl)thio)acetyl)thiophen-2-yl)methyl)methanesulfonamide]
100 to 500 | > 10000 | ≤ 100 | Cc1nc(SCC(=O)c2ccc(CCNS(C)(=O)=O)s2)c2ccccc2n1 [Compound 94, N-(2-(5-(2-((2-methylquinazolin-4-yl)thio)acetyl)thiophen-2-yl)ethyl)methanesulfonamide]
100 to 500 | > 10000 | ≤ 100 | CS(=O)(=O)N1CCC(c2ccc(C(=O)CSc3nc(C(F)(F)F)nc4ccccc34)s2)C1 (stereo not drawn) [Compound 95, 1-(5-(1-(methylsulfonyl)163yrrolidine-3-yl)thiophen-2-yl)-2-((2-(trifluoromethyl)quinazolin-4-yl)thio)ethanone]
100 to 500 | 1000 to 10000 | ≤ 100 | Cc1nc(SCC(=O)c2ccc(CNS(C)(=O)=O)s2)c2ccccc2n1 [Compound 97, N-((5-(2-((2-methylquinazolin-4-yl)thio)acetyl)thiophen-2-yl)methyl)methanesulfonamide]
≤ 100 | > 10000 | ≤ 100 | CS(=O)(=O)NCCc1ccc(C(=O)CSc2nc(C(F)(F)F)nc3ccccc23)s1 [Compound 98, N-(2-(5-(2-((2-(trifluoromethyl)quinazolin-4-yl)thio)acetyl)thiophen-2-yl)ethyl)methanesulfonamide]
100 to 500 | > 10000 | ≤ 100 | CC(C)c1nc(SCC(=O)c2ccc(CNC(=O)C(C)(C)C)s2)c2ccccc2n1 [Example 1, N-((5-(2-((2-isopropylquinazolin-4-yl)thio)acetyl)thiophen-2-yl)methyl)pivalamide]
100 to 500 | > 10000 | ≤ 100 | CC(C)(C)C(=O)NCc1ccc(C(=O)CSc2nc(C3CC3)nc3ccccc23)s1 [Example 2, N-((5-(2-((2-cyclopropylquinazolin-4-yl)thio)acetyl)thiophen-2-yl)methyl)pivalamide]
≤ 100 | 1000 to 10000 | ≤ 100 | Cc1nc(SCC(=O)c2ccc(CNC(=O)C(C)(C)C)s2)c2ccccc2n1 [Example 3, N-((5-(2-((2-methylquinazolin-4-yl)thio)acetyl)thiophen-2-yl)methyl)pivalamide]
500 to 1000 | > 10000 | ≤ 100 | COCc1nc(SCC(=O)c2ccc(CNC(=O)C(C)(C)C)s2)c2ccccc2n1 [Example 4, N-((5-(2-((2-(methoxymethyl)quinazolin-4-yl)thio)acetyl)thiophen-2-yl)methyl)pivalamide]
500 to 1000 | > 10000 | ≤ 100 | Cc1nc(SCC(=O)c2ccc(CNC(=O)C(C)(C)C)s2)c2cnn(C)c2n1 [Example 5, N-((5-(2-((1,6-dimethyl-1H-pyrazolo[3,4-d]pyrimidin-4-yl)thio)acetyl)thiophen-2-yl)methyl)pivalamide]
100 to 500 | > 10000 | ≤ 100 | Cn1ncc2c(SCC(=O)c3ccc(CNC(=O)C(C)(C)C)s3)nc(C3CC3)nc21 [Example 6, N-((5-(2-((6-cyclopropyl-1-methyl-1H-pyrazolo[3,4-d]pyrimidin-4-yl)thio)acetyl)thiophen-2-yl)methyl)pivalamide]
≤ 100 | 1000 to 10000 | ≤ 100 | Cc1nc(SCC(=O)c2ccc(CNC(=O)C(C)(C)C)s2)c2cccnc2n1 [Example 7, N-((5-(2-((2-methylpyrido[2,3-d]pyrimidin-4-yl)thio)acetyl)thiophen-2-yl)methyl)pivalamide]
100 to 500 | > 10000 | ≤ 100 | Cc1nc(SCC(=O)c2ccc(CNC(=O)C(C)(C)C)s2)c2ccc(Cl)cc2n1 [Example 8, N-((5-(2-((7-chloro-2-methylquinazolin-4-yl)thio)acetyl)thiophen-2-yl)methyl)pivalamide]
100 to 500 | > 10000 | ≤ 100 | Cc1nc(SCC(=O)c2ccc(CNC(=O)C(C)(C)C)s2)c2cc(F)ccc2n1 [Example 9, N-((5-(2-((6-fluoro-2-methylquinazolin-4-yl)thio)acetyl)thiophen-2-yl)methyl)pivalamide]
100 to 500 | > 10000 | ≤ 100 | Cc1nc(SCC(=O)c2ccc(CNC(=O)C(C)(C)C)s2)c2ccc(F)cc2n1 [Example 10, N-((5-(2-((7-fluoro-2-methylquinazolin-4-yl)thio)acetyl)thiophen-2-yl)methyl)pivalamide]
100 to 500 | > 10000 | ≤ 100 | Cc1ccc2c(SCC(=O)c3ccc(CNC(=O)C(C)(C)C)s3)nc(C)nc2c1 [Example 11, N-((5-(2-((2,7-dimethylquinazolin-4-yl)thio)acetyl)thiophen-2-yl)methyl)pivalamide]
100 to 500 | > 10000 | ≤ 100 | COc1ccc2c(SCC(=O)c3ccc(CNC(=O)C(C)(C)C)s3)nc(C)nc2c1 [Example 12, N-((5-(2-((7-methoxy-2-methylquinazolin-4-yl)thio)acetyl)thiophen-2-yl)methyl)pivalamide]
100 to 500 | > 10000 | ≤ 100 | Cc1nc(SCC(=O)c2ccc(CNC(=O)C(C)(C)C)s2)c2cccc(F)c2n1 [Example 15, N-((5-(2-((8-fluoro-2-methylquinazolin-4-yl)thio)acetyl)thiophen-2-yl)methyl)pivalamide]
100 to 500 | > 10000 | ≤ 100 | CN(C)c1nc(SCC(=O)c2ccc(CNC(=O)C(C)(C)C)s2)c2ccccc2n1 [Example 16, N-((5-(2-((2-(dimethylamino)quinazolin-4-yl)thio)acetyl)thiophen-2-yl)methyl)pivalamide]
100 to 500 | > 10000 | ≤ 100 | CC(C)(C)C(=O)NCc1ccc(C(=O)CSc2nc(C(F)F)nc3ccccc23)s1 [Example 19, N-((5-(2-((2-(difluoromethyl)quinazolin-4-yl)thio)acetyl)thiophen-2-yl)methyl)pivalamide]
100 to 500 | > 10000 | ≤ 100 | Cn1ncc2c(SCC(=O)c3ccc(CNC(=O)C(C)(C)C)s3)nc(C(F)(F)F)nc21 [Example 20, N-((5-(2-((1-methyl-6-(trifluoromethyl)-1H-pyrazolo[3,4-d]pyrimidin-4-yl)thio)acetyl)thiophen-2-yl)methyl)pivalamide]
500 to 1000 | > 10000 | ≤ 100 | Cn1ncc2c(SCC(=O)c3ccc(CNC(=O)C(C)(C)C)s3)nc(C(F)F)nc21 [Example 21, N-((5-(2-((6-(difluoromethyl)-1-methyl-1H-pyrazolo[3,4-d]pyrimidin-4-yl)thio)acetyl)thiophen-2-yl)methyl)pivalamide]
100 to 500 | 1000 to 10000 | ≤ 100 | Cc1ccc2oc(SCC(=O)c3ccc(CNC(=O)C(C)(C)C)s3)nc2n1 [Example 23, N-((5-(2-((5-methyloxazolo[4,5-b]pyridine-2-yl)thio)acetyl)thiophen-2-yl)methyl)pivalamide]
100 to 500 | > 10000 | ≤ 100 | CC1CCN(Cc2ccc(C(=O)CSc3ncnc4c3cnn4C)s2)C1=O (stereo not drawn) [Example 24, 3-methyl-1-((5-(2-((1-methyl-1H-pyrazolo[3,4-d]pyrimidin-4-yl)thio)acetyl)thiophen-2-yl)methyl)pyrrolidin-2-one]
